From USRE50082E1, “(5,6-dihydro)pyrimido[4,5-e]indolizines” (NETHERLANDS TRANSLATIONAL RESEARCH CENTER B.V., priority 2014, dated 2024)
pIC50: −log10 of the molar value.

Test system: MOLT-4 cancer cell line
Assay: Cell proliferation assay, MOLT-4 cancer cell line (ATPlite);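 also: luminescence read-out, percent growth versus compound-free DMSO wells as maximum growth, start-of-incubation signal separating growth from cell death, IC50 from logistic curve fit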
Type: cell-based
Details: Homo sapiens, MOLT-4; 72 hours incubation, ATPlite 1Step; read-out: IC50 MOLT-4 cell proliferation
Description: 5 μL of compound solution was added and the plates were incubated for an additional 72 hours after which 25 μL of ATPlite 1Step™ (PerkinElmer, Groningen, The Netherlands) solution was added to each well. Luminescence was recorded on an Envision multimode reader. The cell signal at the start of incubation was recorded separately in order to distinguish between cell population growth and cell death. In addition, maximum growth was determined by incubation of a duplicate without compound in the presence of 0.4% DMSO. Percentage growth was used as the main y-axis signal. IC50s were fitted by non-linear regression using IDBS XLfit™5 using a 4-parameter logistic curve, yielding a maximum signal, minimum signal, hill-parameter and IC50.

| Structure (SMILES) | pIC50 |
| --- | --- |
| COc1cc(C(=O)NCC(C)(C)O)ccc1Nc1ncc2c(n1)-n1ccc(C(=O)Nc3c(C)cccc3C)c1CC2 [Example 1, N-(2,6-dimethylphenyl)-2-[4-[(2-hydroxy-2-methyl-propyl)carbamoyl]-2-methoxy-anilino]-5,6-dihydropyrimido[4,5-e]indolizine-7-carboxamide] | > 7.30 |
| Cc1cc(N2CCN(C)CC2)ccc1Nc1ncc2c(n1)-n1ccc(C(=O)Nc3c(C)cccc3Cl)c1CC2 [Example 2, N-(2-chloro-6-methyl-phenyl)-2-[2-methyl-4-(4-methylpiperazin-1-yl)anilino]-5,6-dihydropyrimido[4,5-e]indolizine-7-carboxamide] | > 7.30 |
| COc1cc(N2CCOCC2)ccc1Nc1ncc2c(n1)-n1ccc(C(=O)Nc3c(C)cccc3Br)c1CC2 [Example 3, N-(2-bromo-6-methyl-phenyl)-2-(2-methoxy-4-morpholino-anilino)-5,6-dihydropyrimido[4,5-e]indolizine-7-carboxamide] | 6.82 to 7.30 |
| CCc1cccc(C)c1NC(=O)c1ccn2c1CCc1cnc(Nc3ccc(N4CCN(C)CC4)cc3)nc1-2 [Example 4, N-(2-ethyl-6-methyl-phenyl)-2-[4-(4-methylpiperazin-1-yl)anilino]-5,6-dihydropyrimido[4,5-e]indolizine-7-carboxamide] | > 7.30 |
| Cc1cccc(Cl)c1NC(=O)c1ccn2c1CCc1cnc(Nc3ccc(N4CCOCC4)nc3C)nc1-2 [Example 5, N-(2-chloro-6-methyl-phenyl)-2-[(2-methyl-6-morpholino-3-pyridyl)amino]-5,6-dihydropyrimido[4,5-e]indolizine-7-carboxamide] | > 7.30 |
| Cc1cccc(C)c1NC(=O)c1ccn2c1CCc1cnc(Nc3ccc(C(=O)NC4CCN(C)CC4)cc3F)nc1-2 [Example 7, N-(2,6-dimethylphenyl)-2-[2-fluoro-4-[(1-methyl-4-piperidyl)carbamoyl]anilino]-5,6-dihydropyrimido[4,5-e]indolizine-7-carboxamide] | 6.82 to 7.30 |
| CCc1n[nH]c(CC)c1NC(=O)c1ccn2c1CCc1cnc(Nc3ccc(N4CCN(C)CC4)cc3C)nc1-2 [Example 9, N-(3,5-diethyl-1H-pyrazol-4-yl)-2-[2-methyl-4-(4-methylpiperazin-1-yl)anilino]-5,6-dihydropyrimido[4,5-e]indolizine-7-carboxamide] | > 7.30 |
| COc1cc(N2CCN(C)CC2)ccc1Nc1ncc2c(n1)-n1ccc(C(=O)Nc3c(C)cccc3OC)c1CC2 [Example 10, N-(2-methoxy-6-methyl-phenyl)-2-[2-methoxy-4-(4-methylpiperazin-1-yl)anilino]-5,6-dihydropyrimido[4,5-e]indolizine-7-carboxamide] | 6.82 to 7.30 |
| COc1cc(N2CCN(C)CC2)ccc1Nc1ncc2c(n1)-n1ccc(C(=O)Nc3c(C(C)C)cccc3C(C)C)c1CC2 [Example 11, N-(2,6-diisopropylphenyl)-2-[2-methoxy-4-(4-methylpiperazin-1-yl)anilino]-5,6-dihydropyrimido[4,5-e]indolizine-7-carboxamide] | 6.82 to 7.30 |
| COc1cc(OC2CCN(C)CC2)ccc1Nc1ncc2c(n1)-n1ccc(C(=O)Nc3c(C)n[nH]c3C)c1CC2 [Example 15, N-(3,5-dimethyl-1H-pyrazol-4-yl)-2-[2-methoxy-4-[(1-methyl-4-piperidyl)oxy]anilino]-5,6-dihydropyrimido[4,5-e]indolizine-7-carboxamide] | 6.82 to 7.30 |
| COCCn1nc(C)c(NC(=O)c2ccn3c2CCc2cnc(Nc4ccc(N5CCNCC5)cc4OC)nc2-3)c1C [Example 16, N-[1-(2-methoxyethyl)-3,5-dimethyl-pyrazol-4-yl]-2-(2-methoxy-4-piperazin-1-yl-anilino)-5,6-dihydropyrimido[4,5-e]indolizine-7-carboxamide] | 6.82 to 7.30 |
| CCc1cccc(CC)c1NC(=O)c1ccn2c1CCc1cnc(Nc3ccc(N4CCN(C)CC4)cc3OC)nc1-2 [Example 20, N-(2,6-diethylphenyl)-2-[2-methoxy-4-(4-methylpiperazin-1-yl)anilino]-5,6-dihydropyrimido[4,5-e]indolizine-7-carboxamide] | 6.82 to 7.30 |

The next lines start with the values.

| pIC50 | Structure (SMILES) |
| --- | --- |
| > 7.30 | CCc1nn(CCOC)c(CC)c1NC(=O)c1ccn2c1CCc1cnc(Nc3ccc(OC4CCN(C)CC4)cc3C)nc1-2 [Example 13, N-[3,5-diethyl-1-(2-methoxyethyl)pyrazol-4-yl]-2-[2-methyl-4-[(1-methyl-4-piperidyl)oxy]anilino]-5,6-dihydropyrimido[4,5-e]indolizine-7-carboxamide] |
| 6.82 to 7.30 | CCOc1cc(C(=O)NC2CCN(C)CC2)ccc1Nc1ncc2c(n1)-n1ccc(C(=O)Nc3c(C)cccc3CC)c1CC2 [Example 14, 2-[2-Ethoxy-4-[(1-methyl-4-piperidyl)carbamoyl]anilino]-N-(2-ethyl-6-methyl-phenyl)-5,6-dihydropyrimido[4,5-e]indolizine-7-carboxamide] |
| > 7.30 | COc1cc(N2CCNCC2)ccc1Nc1ncc2c(n1)-n1ccc(C(=O)Nc3c(C)cccc3C)c1CC2 [Example 17, N-(2,6-dimethylphenyl)-2-(2-methoxy-4-piperazin-1-yl-anilino)-5,6-dihydropyrimido[4,5-e]indolizine-7-carboxamide] |
| > 7.30 | CCc1n[nH]c(CC)c1NC(=O)c1ccn2c1CCc1cnc(Nc3ccc(N4CCNCC4)cc3OC)nc1-2 [Example 18, N-(3,5-diethyl-1H-pyrazol-4-yl)-2-(2-methoxy-4-piperazin-1-ylanilino)-5,6-dihydropyrimido[4,5-e]indolizine-7-carboxamide] |
| > 7.30 | CCc1nn(CCOC)c(CC)c1NC(=O)c1ccn2c1CCc1cnc(Nc3ccc(N4CCNCC4)cc3OC)nc1-2 [Example 19, N-[3,5-diethyl-1-(2-methoxyethyl)pyrazol-4-yl]-2-(2-methoxy-4-piperazin-1-yl-anilino)-5,6-dihydropyrimido[4,5-e]indolizine-7-carboxamide] |
| > 7.30 | COc1cc(N2CCN(C)CC2)ccc1Nc1ncc2c(n1)-n1ccc(C(=O)Nc3c(C)cc(C)cc3C)c1CC2 [Example 22, 2-[2-Methoxy-4-(4-methylpiperazin-1-yl)anilino]-N-(2,4,6-trimethylphenyl)-5,6-dihydropyrimido[4,5-e]indolizine-7-carboxamide] |
| 6.82 to 7.30 | COc1cc(N2CCN(C)CC2)ccc1Nc1ncc2c(n1)-n1ccc(C(=O)Nc3c(C)cccc3CO)c1CC2 [Example 23, N-[2-(hydroxymethyl)-6-methyl-phenyl]-2-[2-methoxy-4-(4-methylpiperazin-1-yl)anilino]-5,6-dihydropyrimido[4,5-e]indolizine-7-carboxamide] |
| 6.82 to 7.30 | COc1cc(N2CCN(C)CC2)ccc1Nc1ncc2c(n1)-n1ccc(C(=O)Nc3c(C)cccc3F)c1CC2 [Example 24, N-(2-fluoro-6-methyl-phenyl)-2-[2-methoxy-4-(4-methylpiperazin-1-yl)anilino]-5,6-dihydropyrimido[4,5-e]indolizine-7-carboxamide] |
| 6.82 to 7.30 | COc1cc(N2CCN(C)CC2)ccc1Nc1ncc2c(n1)-n1ccc(C(=O)Nc3c(C)ccnc3Cl)c1CC2 [Example 25, N-(2-chloro-4-methyl-3-pyridyl)-2-[2-methoxy-4-(4-methylpiperazin-1-yl)anilino]-5,6-dihydropyrimido[4,5-e]indolizine-7-carboxamide] |
| 6.82 to 7.30 | COCCn1nc(C)c(NC(=O)c2ccn3c2CCc2cnc(Nc4ccc(N5CCN(C)CC5)cc4OC)nc2-3)c1C [Example 26, N-[1-(2-methoxyethyl)-3,5-dimethyl-pyrazol-4-yl]-2-[2-methoxy-4-(4-methylpiperazin-1-yl)anilino]-5,6-dihydropyrimido[4,5-e]indolizine-7-carboxamide] |
| 6.82 to 7.30 | COc1cc(N2CCN(C)CC2)ccc1Nc1ncc2c(n1)-n1ccc(C(=O)Nc3c(C)n[nH]c3C)c1CC2 [Example 27, N-(3,5-dimethyl-1H-pyrazol-4-yl)-2-[2-methoxy-4-(4-methylpiperazin-1-yl)anilino]-5,6-dihydropyrimido[4,5-e]indolizine-7-carboxamide] |
| 6.82 to 7.30 | COc1cc(N2CCN(C)CC2)ccc1Nc1ncc2c(n1)-n1ccc(C(=O)Nc3c(C)nn(C)c3Cl)c1CC2 [Example 28, N-(5-chloro-1,3-dimethyl-pyrazol-4-yl)-2-[2-methoxy-4-(4-methylpiperazin-1-yl)anilino]-5,6-dihydropyrimido[4,5-e]indolizine-7-carboxamide] |
| 6.82 to 7.30 | CCc1ccccc1NC(=O)c1ccn2c1CCc1cnc(Nc3ccc(N4CCN(C)CC4)cc3OC)nc1-2 [Example 29, N-(2-ethylphenyl)-2-[2-methoxy-4-(4-methylpiperazin-1-yl)anilino]-5,6-dihydropyrimido[4,5-e]indolizine-7-carboxamide] |
| 6.82 to 7.30 | CCOc1cc(N2CCN(C)CC2)ccc1Nc1ncc2c(n1)-n1ccc(C(=O)Nc3c(CC)n[nH]c3CC)c1CC2 [Example 31, N-(3,5-diethyl-1H-pyrazol-4-yl)-2-[2-ethoxy-4-(4-methylpiperazin-1-yl)anilino]-5,6-dihydropyrimido[4,5-e]indolizine-7-carboxamide] |
| 6.82 to 7.30 | CCOc1cc(N2CCN(C)CC2)ccc1Nc1ncc2c(n1)-n1ccc(C(=O)Nc3c(C)cccc3CC)c1CC2 [Example 32, 2-[2-Ethoxy-4-(4-methylpiperazin-1-yl)anilino]-N-(2-ethyl-6-methyl-phenyl)-5,6-dihydropyrimido[4,5-e]indolizine-7-carboxamide] |
| 6.82 to 7.30 | Cc1cc(N2CCOCC2)ncc1Nc1ncc2c(n1)-n1ccc(C(=O)Nc3c(C)cccc3C)c1CC2 [Example 34, N-(2,6-dimethylphenyl)-2-[(4-methyl-6-morpholino-3-pyridyl)amino]-5,6-dihydropyrimido[4,5-e]indolizine-7-carboxamide] |
| > 7.30 | COc1cc(C(=O)NC2CCN(C)CC2)ccc1Nc1ncc2c(n1)-n1ccc(C(=O)Nc3c(C)cccc3Cl)c1CC2 [Example 35, N-(2-chloro-6-methyl-phenyl)-2-[2-methoxy-4-[(1-methyl-4-piperidyl)carbamoyl]anilino]-5,6-dihydropyrimido[4,5-e]indolizine-7-carboxamide] |
| 6.82 to 7.30 | CCc1cccc(CC)c1NC(=O)c1ccn2c1CCc1cnc(Nc3ccc(C(=O)NC4CCN(C)CC4)cc3C)nc1-2 [Example 36, N-(2,6-diethylphenyl)-2-[2-methyl-4-[(1-methyl-4-piperidyl)carbamoyl]anilino]-5,6-dihydropyrimido[4,5-e]indolizine-7-carboxamide] |
